Measured values published in article PMC13110364, “Design, Synthesis, and Biological Evaluation of Novel Triazine‐Based Dual Histone Deacetylase/phosphatidylinositol 3‐kinase Inhibitors for Breast Cancer Therapy” (Chemmedchem, 2026).

What was measured:
[1] = tested on: JIMT1 breast cancer cells; assay: MTS cell viability assay, JIMT1; format: cell-based; details: Homo sapiens, JIMT-1, 72 h treatment
Description: The cell viability effects of compounds 5a–5f were assessed in LY2, JIMT1, and MDA‐MB‐231 breast cancer cell lines using the 3‐(4,5‐dimethylthiazol‐2‐yl)‐5‐(3‐carboxymethoxyphenyl)‐2‐(4‐sulfophenyl)‐2H‐tetrazolium (MTS) assay. The MTS assay measures metabolic viability and serves as a first‐pass screen.
JIMT‐1 (DSMZ ACC 589) and MDA‐MB‐231 (ATCC HTB‐26) breast cancer cell lines were maintained in Dulbecco's Modified Eagle Medium (DMEM) High Glucose with L‐glutamine (D5796, Sigma) supplemented with 10% fetal calf serum. MCF7‐derivative LY2 breast cancer cells were previously described (REF: PMID: 33420368). LY2 cells were cultured in phenol red‐free MEM (PRF‐MEM; 51 200‐046, Gibco) supplemented with 10% charcoal dextran‐stripped fetal calf serum (CDS‐FCS; F6765, Merck), 2 mmol/L L‐glutamine (G7513, Merck), and 10^−8 mol/L 4‐hydroxytamoxifen (4‐OHT; H7904, Merck). All cell lines were maintained at 37°C in a humidified incubator with 5% CO2 and regularly authenticated and tested for mycoplasma.
Cell viability was evaluated in response to increasing concentrations of 5a‐5f (0.3, 1, 3, 10, and 30 μM) or vehicle control (0.1% DMSO). LY2, JIMT1, and MDA‐MB‐231 cells were seeded at a density of 2,500 cells per well in 96‐well plates with a total volume of 100 μL per well. Prior to treatment, cells were serum‐deprived for 24 h. Following serum depletion, cells were treated in complete growth medium for 72 h. Cell viability was assessed using the MTS assay (G1111, Promega) according to the manufacturer's instructions. Absorbance was measured at 495 nm using a BioTek Synergy HTX Multi‐Mode Microplate Reader (Agilent). Results were normalized to the vehicle control (DMSO), and the half‐maximal inhibitory concentration (IC50) of the inhibitors was determined by nonlinear regression (curve fit) using a four‐parameter variable slope model.

PI3Kα = PI3Kα (Homo sapiens, UniProt P42336); assay: PI3Kα inhibition, 10-dose IC50 (Reaction Biology Corporation); format: biochemical
PI3Kα, sequence (P42336 whole entry): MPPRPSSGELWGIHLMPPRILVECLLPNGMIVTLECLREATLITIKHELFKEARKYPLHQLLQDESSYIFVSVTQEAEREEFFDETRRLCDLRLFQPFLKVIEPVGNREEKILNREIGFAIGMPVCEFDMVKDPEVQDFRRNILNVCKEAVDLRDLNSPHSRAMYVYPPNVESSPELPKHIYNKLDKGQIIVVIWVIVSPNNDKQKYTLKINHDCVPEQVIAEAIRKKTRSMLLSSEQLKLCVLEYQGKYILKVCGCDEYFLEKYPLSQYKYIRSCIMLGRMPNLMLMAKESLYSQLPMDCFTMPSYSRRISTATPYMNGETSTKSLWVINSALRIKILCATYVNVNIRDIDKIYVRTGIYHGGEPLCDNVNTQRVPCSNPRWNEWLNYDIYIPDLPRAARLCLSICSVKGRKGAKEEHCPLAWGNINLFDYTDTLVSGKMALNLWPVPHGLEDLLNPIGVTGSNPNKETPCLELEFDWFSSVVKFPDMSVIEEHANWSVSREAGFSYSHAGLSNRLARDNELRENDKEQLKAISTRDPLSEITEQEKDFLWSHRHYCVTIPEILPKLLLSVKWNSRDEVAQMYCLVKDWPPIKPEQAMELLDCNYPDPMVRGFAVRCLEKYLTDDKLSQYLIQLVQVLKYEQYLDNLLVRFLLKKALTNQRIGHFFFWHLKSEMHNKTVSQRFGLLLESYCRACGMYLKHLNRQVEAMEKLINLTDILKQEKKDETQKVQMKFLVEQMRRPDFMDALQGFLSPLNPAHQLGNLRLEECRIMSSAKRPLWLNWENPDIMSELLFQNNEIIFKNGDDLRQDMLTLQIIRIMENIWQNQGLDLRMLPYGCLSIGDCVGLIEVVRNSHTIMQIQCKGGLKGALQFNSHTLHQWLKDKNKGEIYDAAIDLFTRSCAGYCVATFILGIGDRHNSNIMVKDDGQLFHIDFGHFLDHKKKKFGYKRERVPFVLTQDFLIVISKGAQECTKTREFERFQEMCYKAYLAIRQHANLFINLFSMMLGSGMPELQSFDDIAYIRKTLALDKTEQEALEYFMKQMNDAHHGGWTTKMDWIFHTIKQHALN
PI3Kα, sequence (P27986 whole entry partner): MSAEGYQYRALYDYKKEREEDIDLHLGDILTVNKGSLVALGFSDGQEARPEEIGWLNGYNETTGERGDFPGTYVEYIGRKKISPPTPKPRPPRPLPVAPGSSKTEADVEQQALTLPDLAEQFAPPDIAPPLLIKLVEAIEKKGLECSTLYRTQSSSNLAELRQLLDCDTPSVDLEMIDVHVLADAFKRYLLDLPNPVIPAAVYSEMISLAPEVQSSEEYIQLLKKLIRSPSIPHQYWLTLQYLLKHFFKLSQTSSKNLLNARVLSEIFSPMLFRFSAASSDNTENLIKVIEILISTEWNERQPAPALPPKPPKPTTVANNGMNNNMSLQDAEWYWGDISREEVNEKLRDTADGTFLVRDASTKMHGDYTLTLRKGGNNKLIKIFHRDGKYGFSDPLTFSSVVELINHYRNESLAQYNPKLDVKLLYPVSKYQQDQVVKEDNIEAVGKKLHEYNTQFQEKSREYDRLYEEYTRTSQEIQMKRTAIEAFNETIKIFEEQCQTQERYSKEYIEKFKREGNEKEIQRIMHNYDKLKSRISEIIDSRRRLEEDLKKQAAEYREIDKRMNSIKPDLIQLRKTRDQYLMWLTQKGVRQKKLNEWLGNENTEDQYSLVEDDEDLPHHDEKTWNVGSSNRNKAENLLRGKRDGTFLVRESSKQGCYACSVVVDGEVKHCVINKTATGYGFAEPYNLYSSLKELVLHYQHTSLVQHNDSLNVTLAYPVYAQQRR

O=C(NO)c1ccc(CNc2nc(-c3cccc(O)c3)nc(N3CCOCC3)n2)cc1 [Compound 5b, N‐Hydroxy‐4‐(((4‐(3‐Hydroxyphenyl)‐6‐Morpholino‐1,3,5‐Triazin‐2‐yl)Amino)Methyl)Benzamide]
IC50 [1]: 5.72 ± 0.76 µM
IC50 (PI3Kα): 17.5 nM

COc1ccc(-c2nc(NCc3ccc(C(=O)NO)cc3)nc(N3CCOCC3)n2)cn1 [Compound 5f, N‐Hydroxy‐4‐(((4‐(6‐Methoxypyridin‐3‐yl)‐6‐Morpholino‐1,3,5‐Triazin‐2‐yl)Amino)Methyl)Benzamide]
IC50 [1]: 3.5 ± 0.95 µM
IC50 (PI3Kα): 236 nM
